According to patent publication US8846745B2, “Use of an indazolemethoxyalkanoic acid for reducing triglyceride, cholesterol and glucose levels” (Aziende Chimiche Riunite Angelini Francesco A.C.R.A.F. …, priority 2006, dated 2014):

What was measured:
[1] = tested on: IL-12; details: human monocytes, LPS 100 ng/ml for 4 hours, bindarit 300 μM tested as sodium salt
Procedure: The capacity of bindarit to inhibit the expression of IL-12 by human monocytes stimulated with lipopolysaccharide (LPS) was evaluated.
Human monocytes were used, which were isolated from healthy donors by centrifugation on a Ficoll gradient and purified by two successive centrifugation steps, followed by a step of isolation by means of an immunomagnetic system of negative cell separation (MACS, Miltenyi Biotech), using specific antibodies.
The cells were stimulated with LPS (100 ng/ml) for 4 hours in the presence or absence of bindarit (300 μM). The product was tested in the form of the sodium salt obtained by salification with equimolar sodium hydroxide and subsequent dilution in the medium used. The total RNA was extracted from cells using TRizol (Invitrogen Life Technologies) according to manufacturer's instructions, reverse-transcribed and prepared by GeneChip hybridization.

[2] = tested on: obese Zucker rats (fa/fa); details: standard rodent diet supplemented with 0.5% bindarit, blood at 6, 16, 28 and 40 weeks old
Procedure: The activity of bindarit was tested in an experimental model in rats.
The study was performed on rats 5 weeks old on arrival, of the Zucker strain homozygous for the “fa” allele (fa/fa), insulin-resistant, hyperinsulinaemic and obese, and on rats of the same age of the heterozygous Zucker control strain (fa/+), phenotypically normal, insulin-sensitive and slim.
At six weeks old, the obese Zucker rats were divided into two groups, one of which was fed with a standard rodent diet, and the other with a standard rodent diet supplemented with 0.5% bindarit.
The slim Zucker rats of the same age were used as controls and fed with a standard rodent diet.
Blood samples were taken from the animals periodically (at 6, 16, 28 and 40 weeks old) for enzymatic measurement of the circulating levels of triglycerides, cholesterol and glucose.

In the case of CC(C)(OCc1nn(Cc2ccccc2)c2ccccc12)C(=O)O [bindarit], the “reduction of the levels of LPS-induced IL-12 specific mRNA” value [1] is reported as “about 100 fold”, the “circulating levels of cholesterol” value [2] is reported as “significant reduction” and the “circulating levels of triglycerides” value [2] is reported as “significant reduction”. The “glycaemia (circulating glucose)” value [2] was “significant reduction”.
